Experimental data published in US11578074B2, “Nitrogenous heterocyclic compound, preparation method, intermediate, composition, and application” (SHANGHAI PHARMACEUTICALS HOLDING CO., LTD., priority 2017, dated 2023).

How the values were obtained:
[1] = In vivo pharmacokinetics study in beagle dogs; settings: male, beagle, dog, in vivo, po, 15 mg/kg
Protocol: 6 male beagle dogs (purchased from Beijing Marshall Biotechnology Co., Ltd., certificate No. SCXK (Beijing) 2016-0001) were divided into 2 groups with 3 dogs in each group, and all of the animals were fasted for about 12 hours before administration. One group was orally administrated with 15 mg/kg of the final product of Embodiment 22 (deionized water was added, followed by sonication for 29 minutes and stirring for 4 minutes, and a clear pale yellow dosing solution with a concentration of 3 mg/mL was prepared); the other group was orally administrated with 15 mg/kg of Pyrotinib (deionized water was added, followed by sonication for 28 minutes and stirring for 5 minutes, and a clear yellow dosing solution with a concentration of 3 mg/mL was prepared). Blood samples were collected before administration and at 15, 30, 60, 90, 120, 150, 180, 240, 360, 480, 720 and 1440 minutes respectively after administration.
1.0 mL of blood was collected from each animal through jugular vein puncture at each time point and heparin sodium was used for anticoagulation. The blood samples were collected and placed in labeled centrifuge tubes, and plasma was centrifuged (centrifugation conditions: 3500 rpm, 10 minutes, 2-8° C.). To 50 μL of plasma sample was added 300 μL of acetonitrile containing internal standard (Propranolol, 25 ng/mL) to precipitate the protain. After vortexing for 10 minutes and centrifuging at 6000 g for 20 minutes, 100 μL of supernatant was taken and injected into a 96-well plate. The drug concentration in plasma was determined by UPLC/MS-MS.

[2] = In vivo pharmacokinetic study in mice; settings: male, ICR, mouse, plasma, oral, 3 mg/kg intravenous, 10 mg/kg intragastric
Protocol: 24 male ICR mice weighing 18-22 g (provided by Shanghai Xipuerbikai Experimental Animal Co., Ltd, certificate No.: 20130016005759). The mice were fasted for feed but not water for 12-16 hours before the experiment. 24 mice were divided into 2 groups with 12 mice in each group. The first group was intravenously administrated with 3 mg/kg (which was dissolved by the ratio 0.9% physiological saline:PEG 400=8:2, to give a clear solution with a concentration of 0.3 mg/mL and a dosage volume of 10 mL/kg) of the final product of Embodiment 45. Blood samples were collected before administration and 2, 5, 15, 30, 60, 90, 120, 240, 360, 480, 600 and 1440 minutes after administration, respectively. The second group was intragastricly administrated with 10 mg/kg (0.5% CMC-Na was added and grounded into a uniform suspension with a concentration of 0.5 mg/mL and a dosage volume of 20 mL/kg) of the final product of Embodiment 45. […]
0.4 mL of blood was taken from fundus venous plexus of mice and rats into a heparinized centrifuge tube (10 μL heparin sodium solution/tube). […] After vortexing for 10 minutes and centrifuging at 6000 g and 4° C. for 10 minutes, the supernatant was diluted with mobile phase in a 96-well plate, and the drug concentration in plasma was determined by UPLC/MS-MS.

bioavailability [2] | Structure (SMILES) | AUC [1] | peak oral absorption concentration [1]
 | CCOc1cc2ncnc(Nc3ccc(Oc4ccn5ncnc5c4)c(C)c3)c2cc1NC(=O)/C=C/[C@H]1CCCN1C [Final product of Embodiment 22, (R,E)-N-(4-((4-([1,2,4]triazolo[1,5-a]pyridin-7-yloxy)-3-methylphenyl)amino)-7-ethoxyquinazolin-6-yl)-3-(1-methylpyrrolidin-2-yl)acrylamide] | 5190 ng·h/mL | 432.6 ng/mL
87.7% | CCOc1cc2ncnc(Nc3ccc(Oc4ccn5ncnc5c4)c(C)c3)c2cc1NC(=O)/C(F)=C/[C@H]1CCCN1C [Final product of Embodiment 45] |  | 
